# Experimental data taken from paper PMC9189845, “Structure–Activity Relationships of 8-Hydroxyquinoline-Derived Mannich Bases with Tertiary Amines Targeting Multidrug-Resistant Cancer” (Journal of Medicinal Chemistry, 2022).
# Like-named read-outs stand apart in the source and are kept apart here.
# Assays:
# [1] = UV-visible spectrophotometric titrations (pKa); format: physicochemical; conditions: water with 0.2% (v/v) DMSO, 25 °C
# Description: Spectrophotometrical determination of pKa values was performed as previously reported.[20],[50] An Agilent Cary 8454 diode array spectrophotometer was used to record the UV–visible spectra in the interval 200–800 nm. The path length was between 1 and 5 cm. The spectrophotometric titrations were performed in water with 0.2% (v/v) DMSO on samples containing the compounds at 2–50 μM in the pH range from 2 to 11.5 at 25.0 ± 0.1 °C at an ionic strength of 0.10 M (KCl). Proton dissociation constants and the individual spectra of the species in the different protonation states were calculated with the computer program PSEQUAD.[62]
# A431-B1 cells = assay: PrestoBlue viability assay, A431-B1 (A431-ABCB1) cells
# MES-SA/Dx5 cells = assay: PrestoBlue viability assay, MES-SA/Dx5 cells (MDR, P-gp positive); conditions: for SR_TQ: selectivity ratio MES-SA vs MES-SA/Dx5, with TQ; for SR: selectivity ratio MES-SA vs MES-SA/Dx5, without TQ
# MES-SA cells = assay: PrestoBlue viability assay, MES-SA cells
# A431 cells = assay: PrestoBlue viability assay, A431 cells
# [2] = cited from earlier work
# [3] = 72 h, read-out: IC50 / µM A431-B1, 72 h incubation
# [4] = read-out: pIC50 A431-B1, SARM figure (converted)
# [5] = Homo sapiens, MES-SA/Dx5, 72 h, read-out: IC50 / μM MES-SA/Dx5, absence of TQ, 72 h incubation
# [6] = Homo sapiens, MES-SA/Dx5, read-out: IC50 / μM MES-SA/Dx5 (values in parentheses), presence of 1 μM P-gp inhibitor tariquidar (TQ)
# [7] = Homo sapiens, MES-SA/Dx5, read-out: pIC50 value MES-SA/Dx5, MES-SA/Dx5 cells, without TQ (converted)
# [8] = read-out: IC50 / μM MES-SA/Dx5 (values in parentheses), presence of 1 μM P-gp inhibitor tariquidar (TQ)
# [9] = Homo sapiens, MES-SA, 72 h, read-out: IC50 / μM MES-SA, absence of TQ, 72 h incubation
# [10] = Homo sapiens, MES-SA, read-out: IC50 / μM MES-SA (values in parentheses), presence of 1 μM P-gp inhibitor tariquidar (TQ)
# [11] = Homo sapiens, MES-SA, read-out: pIC50 value MES-SA+TQ, MES-SA cells, with TQ (converted)
# [12] = Homo sapiens, MES-SA, read-out: pIC50 value MES-SA, MES-SA cells, without TQ (converted)
# [13] = Homo sapiens, A-431, 72 h, read-out: IC50 / µM A431, 72 h incubation
# [14] = Homo sapiens, A-431, read-out: pIC50 A431, SARM figure (converted)
Structure (SMILES),IC50 (A431-B1 cells; [3]) [µM],IC50 (A431-B1 cells; [4]) [µM],IC50 (MES-SA/Dx5 cells; [5]) [µM],IC50 (MES-SA/Dx5 cells; [6]) [µM],IC50 (MES-SA/Dx5 cells; [7]) [µM],IC50 (MES-SA/Dx5 cells; [8]) [µM],SR_TQ (MES-SA/Dx5 cells),SR (MES-SA/Dx5 cells),IC50 (MES-SA cells; [9]) [µM],IC50 (MES-SA cells; [10]) [µM],IC50 (MES-SA cells; [11]) [µM],IC50 (MES-SA cells; [12]) [µM],IC50 (A431 cells; [13]) [µM],IC50 (A431 cells; [14]) [µM],further results
"Oc1c(CN2CCc3ccccc3C2)ccc2cccnc12 [Compound 51, 7-((3,4-Dihydroisoquinolin-2(1H)-yl)methyl)quinolin-8-ol]",2.39 ± 0.02,2.4,1.04 ± 0.1,2.16 ± 0.31,1.05,1.73,1.37,3.03,3.16 ± 0.41,2.97 ± 0.31,2.95,3.16,4.74 ± 0.04,4.79,"pKa ([1]; 0.2% DMSO, I = 0.10 M KCl, read-out: pKa (OH), experimentally determined): 6.24 ± 0.03; pKa ([1]; piperidinium / pyrrolidinium / morpholinium N, read-out: pKa (other; N+amH alkylamine nitrogen), experimentally determined): 10.68 ± 0.03; pKa ([1]; quinolinium nitrogen, I = 0.10 M KCl, read-out: pKa (NquinH+), experimentally determined): 3.07 ± 0.03; IC50 (MES-SA/Dx5 cells; Homo sapiens, MES-SA/Dx5, read-out: pIC50 value MES-SA/Dx5 + TQ, MES-SA/Dx5 cells, with TQ (converted)): 2.14 µM; melting point: 155 to 157 °C"
Oc1c(CN2CCOCC2)cc(Cl)c2cccnc12 [Compound 29],2.42 ± 0.29,2.4,0.82 ± 0.06,1.17 ± 0.01,0.813,,1.41,1.86,1.52 ± 0.07,1.66 ± 0.02,1.66,1.51,6.6 ± 3.57,5.75,"pKa (NquinH+), experimental ([2]; water, 25 °C, ref 15 (Pape et al., Cancers 2021)): < 2"
Oc1c(CN2CCCCC2)ccc2cccnc12 [Compound 3],1.62 ± 0.92,2.4,0.85 ± 0.18,2.69,0.832,1.87,1.56,6.13,5.21 ± 0.95,4.18,4.07,5.13,7.3 ± 0.98,9.77,"IC50 (A431-B1 cells; read-out: IC50 / µM A431-B1, 72 h incubation): 2.48 ± 0.7 µM; IC50 (MES-SA/Dx5 cells; read-out: IC50 / μM MES-SA/Dx5, absence of TQ, 72 h incubation): 0.86 ± 0.19 µM; IC50 (MES-SA cells; read-out: IC50 / μM MES-SA (values in parentheses), presence of 1 μM P-gp inhibitor tariquidar (TQ)): 3.81 µM; IC50 (MES-SA cells; read-out: IC50 / μM MES-SA, absence of TQ, 72 h incubation): 5.46 ± 1.01 µM; pKa (other; N+amH), experimental ([2]; water, 25 °C, ref 50 (Pape et al., Dalton Trans. 2018)): > 11; IC50 (A431 cells; read-out: IC50 / µM A431, 72 h incubation): 10.1 ± 2.95 µM"
"Oc1ccc(Cl)c2cccnc12 [Compound 13, reference compound]",,,5.15 ± 0.48,,5.13,,,1.6,8.26 ± 0.1,,,8.32,,,"pKa (OH), experimental ([2]; ref 59 (Mészáros et al., Dalton Trans. 2020)): 7.6"
